# According to patent US9315491B2 (DEVELOPMENT CENTER FOR BIOTECHNOLOGY, priority 2009, dated 2016):
# Target: recombinant mTOR (Homo sapiens (Human), UniProt P42345)
# Experiment: mTOR kinase assay (33P incorporation into 4EBP1)
# Type: biochemical
# Conditions: compound at 10 μM, 10 μM ATP
# Procedure: The activity of the compound against mTOR was examined by measuring the incorporation of ^33P from [γ-^33P]-ATP into 4EBP1. His-tagged, recombinant human 4EBP1 was expressed in E. coli, purified by nickel-nitrilotriacetic acid (Ni-NTA) resins, and stored at −80° C. Phosphorylation of 4EBP1 by mTOR was assayed in the presence or absence of the compound and performed in a final volume of 25 μl reaction buffer containing 300 ng 4EBP1, 50 ng recombinant mTOR (Invitrogen), 50 mM HEPES (pH 7.5), 1 mM EGTA, 0.01% Polysorbate 20, 10 mM MnCl2, 2.5 mM DTT, 10 μM ATP, and 0.5 μCi [γ-33P]-ATP (PerkinElmir) for 30 min at 30° C. The reactions were terminated by adding 3% phosphoric acid. The ^33P labeled 4EBP1 was transferred onto UniFilter-96 GF/B plate (PerkinElmer) and quantified by Top Count Microplate Scintillation Counter (PerkinElmer). For primary screening of kinase activity inhibition, each test compound was evaluated at […] in duplicate. […] The IC50 values of the compounds were determined after carrying out assays at eight serially diluted concentrations of each compound in duplicate. The results were analyzed using linear regression software (GraphPad Prism 5; GraphPad Software Inc.).
# IC50 value is defined as the concentration of the test compound which achieves a half-maximal inhibition of the kinase activity.
# Sequence of recombinant mTOR (P42345 1360-2549): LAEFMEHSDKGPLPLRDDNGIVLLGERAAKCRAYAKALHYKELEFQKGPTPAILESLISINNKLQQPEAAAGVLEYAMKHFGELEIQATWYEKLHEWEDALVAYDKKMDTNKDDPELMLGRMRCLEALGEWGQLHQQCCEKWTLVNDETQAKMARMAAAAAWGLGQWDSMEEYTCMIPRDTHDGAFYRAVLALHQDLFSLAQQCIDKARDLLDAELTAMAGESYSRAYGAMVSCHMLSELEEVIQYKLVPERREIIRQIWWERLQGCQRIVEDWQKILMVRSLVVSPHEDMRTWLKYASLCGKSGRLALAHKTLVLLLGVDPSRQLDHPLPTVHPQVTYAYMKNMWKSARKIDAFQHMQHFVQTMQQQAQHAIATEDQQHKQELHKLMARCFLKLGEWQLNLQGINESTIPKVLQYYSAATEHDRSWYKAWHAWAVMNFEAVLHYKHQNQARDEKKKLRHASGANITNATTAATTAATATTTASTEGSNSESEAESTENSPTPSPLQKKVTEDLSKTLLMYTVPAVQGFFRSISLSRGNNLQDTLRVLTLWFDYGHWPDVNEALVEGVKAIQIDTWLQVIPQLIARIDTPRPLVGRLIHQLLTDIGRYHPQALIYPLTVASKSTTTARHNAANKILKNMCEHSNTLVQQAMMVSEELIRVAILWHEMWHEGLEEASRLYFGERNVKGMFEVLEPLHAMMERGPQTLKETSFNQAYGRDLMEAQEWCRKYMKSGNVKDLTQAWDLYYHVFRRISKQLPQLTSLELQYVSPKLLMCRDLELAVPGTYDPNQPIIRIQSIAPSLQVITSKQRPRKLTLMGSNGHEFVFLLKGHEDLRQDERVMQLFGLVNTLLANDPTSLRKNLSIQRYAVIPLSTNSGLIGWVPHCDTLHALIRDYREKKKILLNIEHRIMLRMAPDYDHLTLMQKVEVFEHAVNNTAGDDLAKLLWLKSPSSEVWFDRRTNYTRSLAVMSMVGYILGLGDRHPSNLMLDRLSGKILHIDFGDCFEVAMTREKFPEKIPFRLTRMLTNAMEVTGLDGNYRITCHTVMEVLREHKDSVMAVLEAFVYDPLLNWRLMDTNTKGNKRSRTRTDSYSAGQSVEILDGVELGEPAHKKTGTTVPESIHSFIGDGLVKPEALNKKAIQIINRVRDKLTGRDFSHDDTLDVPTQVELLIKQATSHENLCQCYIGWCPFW
Compound,inhibition at 10 µM [%],% Inhibition @ 10 μM [%]
"CSc1c(Cl)nc(-c2ccc(NC(N)=O)c(F)c2)nc1N1CCOCC1 [MTR-0356, [4-(4-Chloro-5-methylsulfanyl-6-morpholin-4-yl-pyrimidin-2-yl)-2-fluoro-phenyl]-urea]",82,
"CSc1c(-c2ccncc2)nc(-c2ccc(N)cc2)nc1N1CCOCC1 [MTR-0360, 4-(5-Methylsulfanyl-4-morpholin-4-yl-6-pyridin-4-yl-pyrimidin-2-yl)-phenylamine]",95,
"CCOC(=O)c1nc(-c2ccc(NC(=O)Nc3ccc4c(c3)OCO4)cc2)nc(N2CCOCC2)c1OCC [MTR-0361, 2-[4-(3-Benzo[1,3]dioxol-5-yl-ureido)-phenyl]-5-ethoxy-6-morpholin-4-yl-pyrimidine-4-carboxylic acid ethyl ester]",95,
"CCOC(=O)c1nc(-c2ccc(NC(=O)NC(C)C)cc2)nc(N2CCOCC2)c1OCC [MTR-0366, 5-Ethoxy-2-[4-(3-isopropyl-ureido)-phenyl]-6-morpholin-4-yl-pyrimidine-4-carboxylic acid ethyl ester]",85,
"CSc1c(Cl)nc(-c2cnc(N)nc2)nc1N1CCOCC1 [MTR-0373, 6-Chloro-5-methylsulfanyl-4-morpholin-4-yl-[2,5′]bipyrimidinyl-2′-ylamine]",81,
"CCOc1cnc(-c2ccc(NC(=O)Nc3ccc(C(N)=O)cc3)cc2)nc1-c1ccncc1 [MTR-0400, 4-{3-[4-(5-Ethoxy-4-pyridin-4-yl-pyrimidin-2-yl)-phenyl]-ureido}-benzamide]",85,
"CCOC(=O)c1nc(-c2cnc(NC(=O)Nc3ccc(N4CCOCC4=O)cc3)nc2)nc(N2CCOCC2)c1OCC [MTR-0403, 5-Ethoxy-6-morpholin-4-yl-2′-{3-[4-(3-oxo-morpholin-4-yl)-phenyl]-ureido}-[2,5′]bipyrimidinyl-4-carboxylic acid ethyl ester]",88,
"CSc1c(Cl)nc(-c2ccc(NC(=O)Nc3ccc(C(N)=O)cc3)cc2F)nc1N1CCOCC1 [MTR-0411, 4-{3-[4-(4-Chloro-5-methylsulfanyl-6-morpholin-4-yl-pyrimidin-2-yl)-3-fluoro-phenyl]-ureido}-benzamide]",93,
"CSc1c(-c2cccnc2)nc(-c2ccc(NC(=S)Nc3ccccc3)cc2)nc1N1CCOCC1 [MTR-0440, 1-[4-(5-Methylsulfanyl-4-morpholin-4-yl-6-pyridin-3-yl-pyrimidin-2-yl)-phenyl]-3-phenyl-thiourea]",89,
"CSc1c(-c2ccncc2)nc(-c2ccc(NC(=S)Nc3ccccc3)cc2)nc1N1CCOCC1 [MTR-0468, 1-[4-(5-Methylsulfanyl-4-morpholin-4-yl-6-pyridin-4-yl-pyrimidin-2-yl)-phenyl]-3-phenyl-thiourea]",97,
COc1c(-c2ccc(N)cc2)nc(-c2ccc(N)cc2)nc1N1CCOCC1 [MTR-0483],,88

# Results, then the molecule that gave them:
inhibition at 10 µM [%],% Inhibition @ 10 μM [%],Compound
94,,"COc1cnc(-c2ccc(NC(=O)Nc3ccc(Br)nc3)cc2)nc1N1CCOCC1 [MTR-0352, 1-(6-Bromo-pyridin-3-yl)-3-[4-(5-methoxy-4-morpholin-4-yl-pyrimidin-2-yl)-phenyl]-urea]"
84,,"CCOC(=O)c1ccc(NC(=O)Nc2ccc(-c3nc(C(=O)OCC)c(OCC)c(N4CCOCC4)n3)cc2)cc1 [MTR-0362, 5-Ethoxy-2-{4-[3-(4-ethoxycarbonyl-phenyl)-ureido]-phenyl}-6-morpholin-4-yl-pyrimidine-4-carboxylic acid ethyl ester]"
93,,"CCOC(=O)c1nc(-c2ccc(NC(=O)Nc3ccc(OCCN(C)C)cc3)cc2)nc(N2CCOCC2)c1OCC [MTR-0363, 2-(4-{3-[4-(2-Dimethylamino-ethoxy)-phenyl]-ureido}-phenyl)-5-ethoxy-6-morpholin-4-yl-pyrimidine-4-carboxylic acid ethyl ester]"
92,,"CS(=O)(=O)c1cnc(-c2ccc(NC(=O)Nc3ccc(N4CCOCC4=O)cc3)cc2)nc1N1CCOCC1 [MTR-0381, 1-[4-(5-Methanesulfonyl-4-morpholin-4-yl-pyrimidin-2-yl)-phenyl]-3-[4-(3-oxo-morpholin-4-yl)-phenyl]-urea]"
85,,"CSc1c(Cl)nc(-c2ccc(NC(=O)Nc3ccc(S(N)(=O)=O)cc3)c(F)c2)nc1N1CCOCC1 [MTR-0410, 4-{3-[4-(4-Chloro-5-methylsulfanyl-6-morpholin-4-yl-pyrimidin-2-yl)-2-fluoro-phenyl]-ureido}-benzenesulfonamide]"
81,,"CSc1c(Cl)nc(-c2ccc(NC(=O)Nc3ccc(NC(C)=O)nc3)cc2)nc1N1CCOCC1 [MTR-0415, N-(5-{3-[4-(4-Chloro-5-methylsulfanyl-6-morpholin-4-yl-pyrimidin-2-yl)-phenyl]-ureido}-pyridin-2-yl)-acetamide]"
82,,"CCOC(=O)c1nc(-c2ccc(NC(=O)Nc3ccc(N4CCN(S(C)(=O)=O)CC4)cc3)cc2)nc(N2CCOCC2)c1OCC [MTR-0419, 5-Ethoxy-2-(4-{3-[4-(4-methanesulfonyl-piperazin-1-yl)-phenyl]-ureido}-phenyl)-6-morpholin-4-yl-pyrimidine-4-carboxylic acid ethyl ester]"
95,,"CCOC(=O)c1nc(-c2ccc(NC(=O)Nc3ccc4[nH]c(=O)oc4c3)cc2)nc(N2CCOCC2)c1OCC [MTR-0423, 5-Ethoxy-6-morpholin-4-yl-2-{4-[3-(2-oxo-2,3-dihydro-benzooxazol-6-yl)-ureido]-phenyl}-pyrimidine-4-carboxylic acid ethyl ester]"
86,,"CSc1cnc(-c2ccc(NC(=O)Nc3ccc(N4CCN(S(C)(=O)=O)CC4)cc3)cc2)nc1N1CCOCC1 [MTR-0430, 1-[4-(4-Methanesulfonyl-piperazin-1-yl)-phenyl]-3-[4-(5-methylsulfanyl-4-morpholin-4-yl-pyrimidin-2-yl)-phenyl]-urea]"
90,,"CSc1c(Cl)nc(-c2ccc(NC(=O)Nc3ccc(S(=O)(=O)N4CCOCC4)cc3)cc2)nc1N1CCOCC1 [MTR-0435, 1-[4-(4-Chloro-5-methylsulfanyl-6-morpholin-4-yl-pyrimidin-2-yl)-phenyl]-3-[4-(morpholine-4-sulfonyl)-phenyl]-urea]"
88,,"CSc1cnc(-c2ccc(NC(=O)Nc3ccc4[nH]c(=O)oc4c3)cc2)nc1N1CCOCC1 [MTR-0459, 1-[4-(5-Methylsulfanyl-4-morpholin-4-yl-pyrimidin-2-yl)-phenyl]-3-(2-oxo-2,3-dihydro-benzooxazol-6-yl)-urea]"
88,,"COc1cnc(-c2ccc(NC(=O)Nc3ccc(S(C)(=O)=O)cc3)cc2)nc1N1CCOCC1 [MTR-0470, 1-(4-Methanesulfonyl-phenyl)-3-[4-(5-methoxy-4-morpholin-4-yl-pyrimidin-2-yl)-phenyl]-urea]"
88,,"COc1cnc(-c2ccc(NC(=O)Nc3ccc(N4CCOCC4=O)cc3)cc2)nc1-c1ccncc1 [MTR-0474, 1-[4-(5-Methoxy-4-pyridin-4-yl-pyrimidin-2-yl)-phenyl]-3-[4-(3-oxo-morpholin-4-yl)-phenyl]-urea]"
95,,"CSc1c(-c2ccncc2)nc(-c2ccc(NC(=O)NC(C)C)cc2)nc1N1CCOCC1 [MTR-0479, 1-Isopropyl-3-[4-(5-methylsulfanyl-4-morpholin-4-yl-6-pyridin-4-yl-pyrimidin-2-yl)-phenyl]-urea]"
90,,"COc1cnc(-c2ccc(NC(=O)Nc3ccncc3)cc2)nc1-c1ccncc1 [MTR-0480, 1-[4-(5-Methoxy-4-pyridin-4-yl-pyrimidin-2-yl)-phenyl]-3-pyridin-4-yl-urea]"
